From the NIST ThermoML archive (doi:10.1021/je800110r)

Details: 293.15 K, Liquid, Vibrating tube method

CCCCCCCCCC [decane]
Details | mass density [kg/m3]
12325 kPa | 739.1
12342 kPa | 739.1
12359 kPa | 739
12381 kPa | 739
12401 kPa | 739.1
12417 kPa | 739
12437 kPa | 739.1
12454 kPa | 739
12476 kPa | 739.3
12499 kPa | 739.2
12516 kPa | 739.1
12536 kPa | 739.1
12556 kPa | 739.1
12576 kPa | 739.1
12593 kPa | 739.2
12610 kPa | 739.3
12633 kPa | 739.3
12653 kPa | 739.2
12677 kPa | 739.2
12703 kPa | 739.2
12720 kPa | 739.2
12744 kPa | 739.3
12759 kPa | 739.2
12785 kPa | 739.3
12809 kPa | 739.3
12827 kPa | 739.3
12851 kPa | 739.3
12872 kPa | 739.5
12896 kPa | 739.3
12917 kPa | 739.5
12939 kPa | 739.5
12957 kPa | 739.4
12978 kPa | 739.4
12999 kPa | 739.5
13018 kPa | 739.5
13039 kPa | 739.5
13058 kPa | 739.5
13080 kPa | 739.6
13098 kPa | 739.5
13127 kPa | 739.6
13152 kPa | 739.6
13172 kPa | 739.7
13197 kPa | 739.5
13216 kPa | 739.6
13235 kPa | 739.6
13251 kPa | 739.7
13274 kPa | 739.7
13290 kPa | 739.7
13309 kPa | 739.7
13329 kPa | 739.6
13359 kPa | 739.6
13385 kPa | 739.8
13408 kPa | 739.7
13435 kPa | 739.7
13459 kPa | 739.8
13479 kPa | 739.8
13501 kPa | 740
13525 kPa | 739.9
13548 kPa | 739.8
13569 kPa | 740
13586 kPa | 739.9
13609 kPa | 739.9
13626 kPa | 739.9
13644 kPa | 739.8
13667 kPa | 740
13686 kPa | 740
13701 kPa | 740
13722 kPa | 739.9
13745 kPa | 740
13766 kPa | 739.9
13784 kPa | 739.9
13802 kPa | 740
13820 kPa | 740
13844 kPa | 740
13862 kPa | 740.1
13881 kPa | 739.9
13903 kPa | 740.2
13927 kPa | 740.1
13943 kPa | 740.1
13967 kPa | 740.3
13989 kPa | 740.1
14008 kPa | 740.2
14024 kPa | 740.3
14044 kPa | 740.1
14061 kPa | 740.2
14081 kPa | 740.3
14098 kPa | 740.3
14121 kPa | 740.2
14139 kPa | 740.3
14151 kPa | 740.3
14167 kPa | 740.2
14181 kPa | 740.4
14194 kPa | 740.3
14205 kPa | 740.2
14220 kPa | 740.4
14232 kPa | 740.3
14245 kPa | 740.4
14257 kPa | 740.4
14269 kPa | 740.2
14281 kPa | 740.3
14297 kPa | 740.4
14314 kPa | 740.4
14325 kPa | 740.4
14339 kPa | 740.4
14352 kPa | 740.4
14363 kPa | 740.4
14376 kPa | 740.4
14389 kPa | 740.4
14404 kPa | 740.4
14418 kPa | 740.4
14427 kPa | 740.5
14443 kPa | 740.4
14458 kPa | 740.5
14471 kPa | 740.4
14483 kPa | 740.6
14500 kPa | 740.6
14517 kPa | 740.5
14529 kPa | 740.4
14542 kPa | 740.6
14554 kPa | 740.4
14566 kPa | 740.6
14580 kPa | 740.6
14592 kPa | 740.5
14605 kPa | 740.5
14617 kPa | 740.6
14637 kPa | 740.6
14650 kPa | 740.7
14664 kPa | 740.6
14676 kPa | 740.7
14691 kPa | 740.6
14706 kPa | 740.7
14717 kPa | 740.7
14735 kPa | 740.6
14753 kPa | 740.7
14765 kPa | 740.7
14779 kPa | 740.7
14791 kPa | 740.7
14807 kPa | 740.7
14821 kPa | 740.7
14833 kPa | 740.8
14847 kPa | 740.7
14859 kPa | 740.7
14877 kPa | 740.9
14893 kPa | 740.7
14910 kPa | 740.8
14926 kPa | 740.8
14943 kPa | 740.9
14959 kPa | 740.8
14975 kPa | 740.9
14992 kPa | 740.9
15008 kPa | 740.8
15023 kPa | 740.8
15039 kPa | 740.9
15050 kPa | 740.9
15066 kPa | 740.9
15087 kPa | 740.9
15102 kPa | 740.9
15115 kPa | 741
15129 kPa | 740.8
15143 kPa | 741
15156 kPa | 740.9
15175 kPa | 741
15192 kPa | 741
15209 kPa | 740.9
15224 kPa | 741
15236 kPa | 741
15251 kPa | 741.2
15270 kPa | 741.1
15288 kPa | 741.1
15305 kPa | 741.1
15317 kPa | 741.1
15339 kPa | 741.1
15352 kPa | 741
15365 kPa | 741.1
15382 kPa | 741.1
15393 kPa | 741.1
15408 kPa | 741.2
15428 kPa | 741.1
15443 kPa | 741.2
15454 kPa | 741
15470 kPa | 741.2
15485 kPa | 741.2
15503 kPa | 741.2
15519 kPa | 741.2
15539 kPa | 741.2
15556 kPa | 741.1
15572 kPa | 741.2
15588 kPa | 741.1
15604 kPa | 741.4
15622 kPa | 741.2
15644 kPa | 741.2
15658 kPa | 741.2
15676 kPa | 741.3
15694 kPa | 741.4
15710 kPa | 741.3
15722 kPa | 741.3
15735 kPa | 741.3
15751 kPa | 741.4
15769 kPa | 741.4
15792 kPa | 741.3
15809 kPa | 741.5
15827 kPa | 741.3
15843 kPa | 741.3
15857 kPa | 741.5
15872 kPa | 741.5
15888 kPa | 741.4
15909 kPa | 741.5
15925 kPa | 741.5
15942 kPa | 741.5
15959 kPa | 741.5
15974 kPa | 741.5
15989 kPa | 741.5
16007 kPa | 741.6
16024 kPa | 741.5
16039 kPa | 741.6
16056 kPa | 741.5
16073 kPa | 741.6
16093 kPa | 741.6
16108 kPa | 741.6
16128 kPa | 741.6
16142 kPa | 741.6
16167 kPa | 741.7
16183 kPa | 741.8
16198 kPa | 741.7
16215 kPa | 741.7
16233 kPa | 741.7
16251 kPa | 741.8
16267 kPa | 741.8
16282 kPa | 741.7
16298 kPa | 741.7
16314 kPa | 741.7
16332 kPa | 741.6
16345 kPa | 741.8
16369 kPa | 741.8
16390 kPa | 741.8
16405 kPa | 741.8
16426 kPa | 741.8
16442 kPa | 741.9
16464 kPa | 741.8
16484 kPa | 741.9
16503 kPa | 741.9
16517 kPa | 741.9
16533 kPa | 741.9
16557 kPa | 741.9
16569 kPa | 741.9
16584 kPa | 741.8
16597 kPa | 741.9
16615 kPa | 741.9
16628 kPa | 742
16646 kPa | 742
16662 kPa | 742.1
16681 kPa | 742
16694 kPa | 742
16705 kPa | 742.1
16717 kPa | 742
16728 kPa | 742
16745 kPa | 742.2
16761 kPa | 742
16772 kPa | 742.1
16786 kPa | 742
16800 kPa | 742
16814 kPa | 742
16828 kPa | 742.2
16842 kPa | 742
16860 kPa | 742.1
16874 kPa | 742.1
16892 kPa | 742.1
16905 kPa | 742.1
16923 kPa | 742.2
16935 kPa | 742.1
16956 kPa | 742.1
16972 kPa | 742.3
16986 kPa | 742.2
